# Test results: paper PMC9127750, “Structure-based design of CDC42 effector interaction inhibitors for the treatment of cancer” (Cell reports, 2022)
# Tested on: WM3248 melanoma cells, 486 antibodies
# Test: Reverse phase protein arrays (RPPA);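 as to RPPA ACC1.R.C: ratio of treated to vehicle (0 µM) normalized linear protein signal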;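 as to RPPA AMPK.a2 pS345.R.V: ratio of treated to vehicle (0 µM) normalized linear protein signal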;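 as to RPPA AMPKa pT172.R.C: ratio of treated to vehicle (0 µM) normalized linear protein signal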;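 as to RPPA ASNS.R.V: ratio of treated to vehicle (0 µM) normalized linear protein signal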
# Format: cell-based, Human
# Conditions: 5 uM
# Excerpt: Pellets were snap frozen in liquid nitrogen and shipped to MD Anderson Cancer Center core RPPA facility for RPPA analysis (Table S5). Three biological replicates for each sample were generated.
# Nomenclatures on the RPPA heatmaps: name_of_antibody.species_of_antibody.status_of_antibody. V - antibody validated; C - validation of antibody in progress; Q - antibody nonspecific; E – under evaluation; antibodies raised in M - mouse, G - goat, R - rabbit, or T - rat.
compound,measurement,setting,value
"CN(C)c1cccc(Nc2cc(-c3ccccc3)nc(C3CCNCC3)n2)c1 [ARN22089, N1,N1-dimethyl-N3-(6-phenyl-2-(piperidin-4-yl)pyrimidin-4-yl)benzene-1,3-diamine]",RPPA EMA.M.C,Average,1.019
same,RPPA ENY2.M.C,Average,0.945
same,RPPA ER.a.R.V,Average,1.031
same,RPPA ER.a_pS118.R.V,Average,1.194
same,RPPA ERCC1.R.C,Average,0.974
same,RPPA ERCC5.R.C,Average,0.991
same,RPPA ERRalpha.R.V,Average,1.000
same,RPPA EVI1.R.V,Average,0.976
same,RPPA Elk1_pS383.R.C,Average,1.029
same,RPPA Enolase.2.R.V,Average,1.011
same,RPPA EphA2.R.V,Average,0.963
same,RPPA EphA2_pS897.R.C,Average,0.963
same,RPPA Erk5.R.V,Average,1.061
same,RPPA Ets.1.R.V,Average,0.910
same,RPPA FABP5.R.C,Average,0.807
same,RPPA FAK.R.C,Average,1.005
same,RPPA FAK_pY397.R.V,Average,1.015
same,RPPA FANCD2.R.V,Average,1.011
same,RPPA FASN.R.V,Average,0.986
same,RPPA FGF.basic.R.C,Average,0.990
same,RPPA FN14.R.C,Average,1.084
same,RPPA FOXM1.R.V,Average,1.005
same,RPPA FTO.R.V,Average,0.940
same,RPPA Fibronectin.R.V,Average,0.998
same,RPPA FoxO3a_pS318_S321.R.C,Average,0.976
same,RPPA G6PD.R.V,Average,0.982
same,RPPA GATA3.M.V,Average,0.852
same,RPPA GATA6.R.V,Average,0.999
same,RPPA GCLC.R.C,Average,1.009
same,RPPA GCLM.R.V,Average,0.973
same,RPPA GCN5L2.R.V,Average,1.028
same,RPPA GGPS1.M.V,Average,0.917
same,RPPA GRB2.R.V,Average,1.049
same,RPPA GRB7.R.V,Average,1.025
same,RPPA GSK.3a.b.M.V,Average,0.977
same,RPPA GSK.3a.b_pS21_S9.R.V,Average,0.983
same,RPPA Gab2.R.V,Average,1.019
same,RPPA Gli1.R.C,Average,1.002
same,RPPA Gli3.R.C,Average,0.909
same,RPPA Glucocorticoid.Receptor.R.V,Average,1.019
same,RPPA Glutamate.D1.2.R.V,Average,0.907
same,RPPA Glutaminase.R.C,Average,0.909
same,RPPA Granzyme.B.R.V,Average,1.098
same,RPPA Grp75.R.C,Average,0.983
same,RPPA Gys_pS641.R.V,Average,1.021
same,RPPA H2AX_pS139.R.C,Average,1.019
same,RPPA H2AX_pS140.M.C,Average,0.923
same,RPPA HER2.M.V,Average,0.962
same,RPPA HER2_pY1248.R.V,Average,1.025
same,RPPA HER3_pY1289.R.C,Average,0.983
same,RPPA HES1.R.V,Average,1.187
same,RPPA X4E.BP1.R.V,Average,1.200
same,RPPA X4E.BP1_pS65.R.V,Average,1.011
same,RPPA X4E.BP1_pT37_T46.R.V,Average,1.016
same,RPPA X14.3.3.zeta.R.V,Average,0.987
same,RPPA X14.3.3βR.V,Average,1.006
same,RPPA X14.3.3εM.C,Average,0.962
same,RPPA X53BP1.R.V,Average,0.978
same,RPPA b.Actin.R.C,Average,0.929
same,RPPA b.Catenin.R.V,Average,0.915
same,RPPA b.Catenin_pT41_S45.R.V,Average,1.024
same,RPPA c.Abl.R.V,Average,1.084
same,RPPA c.Abl_pY412.R.C,Average,1.056
same,RPPA c.IAP2.R.C,Average,1.003
same,RPPA eEF2.R.C,Average,0.913
same,RPPA eEF2K.R.V,Average,0.916
same,RPPA eIF4E.R.V,Average,1.118
same,RPPA eIF4E_pS209.R.V,Average,1.025
same,RPPA eIF4G.R.C,Average,1.047
same,RPPA level HLA.DQA1.R.V,Average,0.948
same,RPPA level HLA.DR.DP.DQ.DX.R.C,Average,0.928
same,RPPA level HMHA1.R.V,Average,1.133
same,RPPA level HNRNPK.R.V,Average,0.988
same,RPPA level HSP27.M.C,Average,1.008
same,RPPA level HSP27_pS82.R.V,Average,1.113
same,RPPA level HSP60.R.V,Average,1.017
same,RPPA level HSP70.R.C,Average,1.003
same,RPPA level Hexokinase.I.R.C,Average,0.909
same,RPPA level Hexokinase.II.R.V,Average,0.992
same,RPPA level Hif.1αR.C,Average,1.051
same,RPPA level Histone.H3.R.V,Average,0.963
same,RPPA level Histone.H3_pS10.R.V,Average,0.786
same,RPPA level IGF1R_pY1135_Y1136.R.V,Average,1.035
same,RPPA level IGFBP2.R.V,Average,0.875
same,RPPA level IGFBP3.M.V,Average,0.957
same,RPPA level IGFRb.R.C,Average,1.062
same,RPPA level IL.6.R.C,Average,1.050
same,RPPA level IMP3.R.C,Average,0.997
same,RPPA level IR.b.R.C,Average,1.131
same,RPPA level IRF.1.R.V,Average,1.000
same,RPPA level IRF.3.R.V,Average,1.007
same,RPPA level IRS1.R.V,Average,1.078
same,RPPA level IRS2.R.C,Average,0.971
same,RPPA level JAB1.M.C,Average,0.973
same,RPPA level JNK2.R.V,Average,0.889
same,RPPA level JNK_pT183_Y185.R.C,Average,1.026
same,RPPA level Jak2.R.V,Average,1.011
same,RPPA level KAP1.R.V,Average,0.915
same,RPPA level KEAP1.R.V,Average,0.914
same,RPPA level LC3A.B.R.C,Average,0.914
same,RPPA level LCN2.R.V,Average,1.165
same,RPPA level LDHA.R.C,Average,0.789
same,RPPA level LRP6_pS1490.R.V,Average,1.065
same,RPPA level Lasu1.R.V,Average,0.902
same,RPPA level Lck.R.V,Average,0.925
same,RPPA level Lyn.R.V,Average,0.878
same,RPPA level MACC1.R.V,Average,1.021
same,RPPA level MAPK_pT202_Y204.R.C,Average,1.079
same,RPPA level MCT4.R.V,Average,0.958
same,RPPA level MDM2_pS166.R.V,Average,0.899
same,RPPA level MEK1.R.V,Average,1.584
same,RPPA level MEK1_pS217_S221.R.V,Average,1.125
same,RPPA level MERIT40.R.C,Average,0.975
same,RPPA level METTL3.R.V,Average,0.920
same,RPPA level MIF.R.C,Average,1.010
same,RPPA level MIG6.R.V,Average,1.024
same,RPPA level MITF.R.V,Average,0.967
same,RPPA level MLH1.M.V,Average,0.943
same,RPPA level MLKL.R.V,Average,0.967
same,RPPA level MMP2.R.V,Average,0.995
same,RPPA level MMP14.R.V,Average,0.964
same,RPPA level MR1.M.C,Average,1.033
same,RPPA level MRAP.R.C,Average,1.061
same,RPPA level MSH2.R.C,Average,0.932
same,RPPA level MSH6.R.C,Average,0.925
same,RPPA level MSI2.R.C,Average,1.004
same,RPPA level MTCO1.M.V,Average,0.944
same,RPPA level MTSS1.M.C,Average,0.998
same,RPPA level Mcl.1.R.V,Average,1.076
same,RPPA level MelanA.R.C,Average,1.025
same,RPPA level Melanoma.gp100.R.C,Average,1.061
same,RPPA level Merlin.R.C,Average,0.894
same,RPPA level Midkine.R.V,Average,1.001
same,RPPA level Mitofusin.1.R.V,Average,1.053
same,RPPA level Mitofusin.2.R.V,Average,1.013
same,RPPA level mTOR.R.V,Average,1.016
same,RPPA level mTOR_pS2448.R.C,Average,1.025
same,c.Jun_pS73.R.V RPPA level,Average,0.983
same,c.Kit.R.V RPPA level,Average,0.895
same,c.Met_pY1234_Y1235.R.V RPPA level,Average,1.062
same,c.Myc.R.C RPPA level,Average,1.010
same,cGAS.R.V RPPA level,Average,1.020
same,cdc2_pY15.R.C RPPA level,Average,1.200
same,RPPA A.Raf.R.V,B.1,0.964
same,RPPA A.Raf_pS299.R.C,B.1,1.002
same,RPPA ACC1.R.C,B.1,1.160
same,RPPA ACC_pS79.R.V,B.1,0.974
same,RPPA ACSL1.R.V,B.1,1.052
same,RPPA ACVRL1.R.C,B.1,1.027
same,RPPA ADAR1.M.V,B.1,0.990
same,RPPA ALKBH5.R.V,B.1,1.061
same,RPPA AMPK.a2_pS345.R.V,B.1,0.982
same,RPPA AMPKa.R.C,B.1,1.010
same,RPPA AMPKa_pT172.R.C,B.1,0.679
same,RPPA ARID1A.R.C,B.1,0.955
same,RPPA ASNS.R.V,B.1,1.050
same,RPPA ATM.R.V,B.1,1.017
same,RPPA ATM_pS1981.R.V,B.1,1.023
same,RPPA ATP5A.M.C,B.1,1.186
same,RPPA ATP5H.R.V,B.1,1.203
same,RPPA ATR.R.V,B.1,1.027
same,RPPA ATRX.R.C,B.1,0.816
same,RPPA ATR_pS428.R.C,B.1,0.959
